Test results: patent publication US20210115040A1, “OGA INHIBITOR COMPOUNDS” (Janssen Pharmaceutica NV, priority 2018, published 2021)

Target: T1, OGA (Mus musculus, UniProt Q9EQQ9)
T1 construct: from tissue; host or cells: mouse brain (sagittal sections, forebrain area)
T1 sequence (Q9EQQ9 1-916): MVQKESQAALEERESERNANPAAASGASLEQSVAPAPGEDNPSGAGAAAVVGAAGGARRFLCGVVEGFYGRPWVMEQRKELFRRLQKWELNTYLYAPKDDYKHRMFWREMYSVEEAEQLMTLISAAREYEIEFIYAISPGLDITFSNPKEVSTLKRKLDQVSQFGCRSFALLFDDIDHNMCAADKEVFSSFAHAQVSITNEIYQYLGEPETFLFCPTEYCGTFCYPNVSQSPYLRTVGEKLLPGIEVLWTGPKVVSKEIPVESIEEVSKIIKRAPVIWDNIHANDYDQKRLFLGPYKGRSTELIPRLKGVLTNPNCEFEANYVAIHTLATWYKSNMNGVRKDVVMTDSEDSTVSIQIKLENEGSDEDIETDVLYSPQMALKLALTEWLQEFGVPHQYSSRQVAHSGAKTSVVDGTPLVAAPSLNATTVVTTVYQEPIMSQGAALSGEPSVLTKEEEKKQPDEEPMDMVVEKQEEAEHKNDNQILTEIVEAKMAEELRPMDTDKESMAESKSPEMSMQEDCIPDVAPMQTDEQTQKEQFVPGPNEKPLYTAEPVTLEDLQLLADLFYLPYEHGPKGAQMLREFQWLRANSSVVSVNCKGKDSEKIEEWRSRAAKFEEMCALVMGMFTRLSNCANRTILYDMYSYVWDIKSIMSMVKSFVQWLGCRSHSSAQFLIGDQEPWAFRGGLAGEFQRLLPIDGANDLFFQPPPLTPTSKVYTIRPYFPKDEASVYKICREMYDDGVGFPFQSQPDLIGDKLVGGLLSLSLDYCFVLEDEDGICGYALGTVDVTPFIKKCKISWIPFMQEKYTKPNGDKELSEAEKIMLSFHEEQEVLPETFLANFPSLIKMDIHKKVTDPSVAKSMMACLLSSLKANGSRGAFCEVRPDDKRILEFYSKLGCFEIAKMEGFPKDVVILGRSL
Assay: Ex vivo OGA occupancy assay using [3H]-ligand (brain sections, autoradiography)
Assay type: in vivo
Conditions: po, Male NMRI or C57Bl6j mice, p.o., 24 h after administration, forebrain area, normalised to vehicle, read-out: Occupancy (% +/- sd)
Procedure: Male NMRI or C57Bl6j mice were treated by oral (p.o.) administration of vehicle or compound. Animals were sacrificed 24 hours after administration. Brains were immediately removed from the skull, hemispheres were separated and the right hemisphere, for ex vivo OGA occupancy assay, was rapidly frozen in dry-ice cooled 2-methylbutane (−40° C.). Twenty […]m-thick sagittal sections were cut using a Leica CM 3050 cryostat-microtome (Leica, Belgium), thaw-mounted on microscope slides (SuperFrost Plus Slides, Thermo Fisher Scientific) and stored at −20° C. until use. After thawing, sections were dried under a cold stream of air. The sections were not washed prior to incubation. The 10 minutes incubation with 3 nM [^3H]-ligand was rigorously controlled. All brain sections (from compound-treated and vehicle-treated animals) were incubated in parallel. After incubation, the excess of [^3H]-ligand was washed off in ice-cold buffer (PBS 1× and 1% BSA) 2 times 10 minutes, followed by a quick dip in distilled water. The sections were then dried under a stream of cold air.
Radioactivity in the forebrain area of brain slices was measured using a β-imager with M3 vision analysis software (Biospace Lab, Paris). Specific binding was calculated as the difference between total binding and non-specific binding measured in Thiamet-G (10 μM) treated sections. […]

receptor occupancy at 25 mg/kg: 3.33%
SMILES: Cc1cc(C2CCCN(C(C)c3ccc4sc(C)nc4n3)C2)cc(C)n1 (racemic) [Compound 39]
